From patent US11186564B2, “Dual NAV1.2/5HT2a inhibitors for treating CNS disorders” (Sunovion Pharmaceuticals Inc., priority 2016, dated 2021)

Each compound was assayed against T1, recombinant human serotonin receptor 5-HT2A (Homo sapiens, UniProt P28223) (assay: 5-HT2A antagonist Ca2+ assay in CHO-K1 cells (method A aequorin luminescence / method B FLIPR fluorescence)). Settings: 5HT2A IC50, μM, antagonist mode vs EC80 of reference agonist, method A or B.
T1 construct: expressed in transfected cells; method B: loaded with Ca2+ dye
Assay type: cell-based
In short: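 IC50 was obtained by nonlinear regression of percent inhibition of the EC80 agonist Ca2+ response in CHO-K1 cells stably expressing human 5-HT2A. The readout was aequorin luminescence with agonist injected 15 min after compound (A), or Ca2+-dye fluorescence on FLIPR with serotonin as agonist (B).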

T1 sequence (P28223 whole entry): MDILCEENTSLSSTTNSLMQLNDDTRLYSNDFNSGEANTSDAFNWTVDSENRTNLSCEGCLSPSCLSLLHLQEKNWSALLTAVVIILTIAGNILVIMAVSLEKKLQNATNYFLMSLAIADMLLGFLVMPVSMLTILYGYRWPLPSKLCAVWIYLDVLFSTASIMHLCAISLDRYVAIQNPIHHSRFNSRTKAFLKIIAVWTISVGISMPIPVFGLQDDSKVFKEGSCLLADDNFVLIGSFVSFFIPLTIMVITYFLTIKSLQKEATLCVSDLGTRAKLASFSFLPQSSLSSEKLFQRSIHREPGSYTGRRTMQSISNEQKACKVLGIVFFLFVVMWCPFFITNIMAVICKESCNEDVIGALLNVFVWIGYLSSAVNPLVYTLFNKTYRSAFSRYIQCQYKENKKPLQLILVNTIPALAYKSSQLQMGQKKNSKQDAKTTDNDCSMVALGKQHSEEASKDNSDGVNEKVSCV

| SMILES | IC50 [µM] |
| --- | --- |
| c1ccc2c(c1)CC(CN1CCC3(CC1)OCc1ccccc13)C2 [Example 392, 1′-((2,3-dihydro-1H-inden-2-yl)methyl)-3H-spiro[isobenzofuran-1,4′-piperidine]] | 1.59 |

Same assay, conditions: antagonist mode vs EC80 of reference agonist, method A or B, read-out: 5HT2A IC50

| IC50 [µM] | SMILES |
| --- | --- |
| 3.51 | OC(COC1COCc2ccccc21)CN1CCC(Oc2ccccc2)CC1 (stereo not shown) [Example 239, 1-(isochroman-4-yloxy)-3-(4-phenoxypiperidin-1-yl)propan-2-ol] |
| 4.89 | O=C1c2ccccc2CCN1CCN1CCCCC(Oc2ccc(F)cc2)C1 (stereo not shown) [Example 280, 2-(2-(3-(4-fluorophenoxy)azepan-1-yl)ethyl)-3,4-dihydroisoquinolin-1(2H)-one] |
| > 5.3 | OC(COc1ccccc1)CN1CCCC12CCN(c1ccccc1)CC2 (stereo not shown) [Example 352, 1-phenoxy-3-(8-phenyl-1,8-diazaspiro[4.5]decan-1-yl)propan-2-ol] |
| 2.08 | COc1ccccc1CN1CCC2(CCN(c3ccccc3)C2)C1 (stereo not shown) [Example 342, 2-(2-methoxybenzyl)-7-phenyl-2,7-diazaspiro[4.4]nonane] |
| 3.28 | COc1ccccc1N1CCC2(CCN(CC3CCc4cccnc43)C2)C1 (stereo not shown) [Example 336, 2-((6,7-dihydro-5H-cyclopenta[b]pyridin-7-yl)methyl)-7-(2-methoxyphenyl)-2,7-diazaspiro[4.4]nonane] |
| > 16.7 | O=C1c2ccccc2CCN1CCN1CCOC(Cc2ccccc2)C1 (stereo not shown) [Example 252, 2-(2-(2-benzylmorpholino)ethyl)-3,4-dihydroisoquinolin-1(2H)-one] |
| > 10 | COc1ccccc1N1CCC2(CCN(CC3Cc4cccnc4C3)C2)C1 (stereo not shown) [Example 338, 2-((6,7-dihydro-5H-cyclopenta[b]pyridin-6-yl)methyl)-7-(2-methoxyphenyl)-2,7-diazaspiro[4.4]nonane] |
| > 13.3 | OC1(CN2CCC[C@H](Oc3ccc(F)cc3)C2)COCc2ccccc21 (stereo partly drawn) [Example 259, 4-(((S)-3-(4-fluorophenoxy)piperidin-1-yl)methyl)isochroman-4-ol] |
| > 10.9 | c1ccc2c(c1)CC1(CCN(CC3CCc4cccnc43)CC1)O2 (stereo not shown) [Example 394, 1′-((6,7-dihydro-5H-cyclopenta[b]pyridin-7-yl)methyl)-3H-spiro[benzofuran-2,4′-piperidine]] |
| 2.46 | COc1cccc(CN2CCC3(CCN(c4ccccc4)C3)C2)c1 (stereo not shown) [Example 343, 2-(3-methoxybenzyl)-7-phenyl-2,7-diazaspiro[4.4]nonane] |
| 0.94 | O=C1c2ccccc2CCN1CCN1CCC[C@@H](Oc2ccc(F)cc2)C1 [Example 264, (R)-2-(2-(3-(4-fluorophenoxy)piperidin-1-yl)ethyl)-3,4-dihydroisoquinolin-1(2H)-one] |
| > 3.16 | O=C1c2ccccc2CCN1CCN1CC[C@@H]2C[C@H]1CN2c1ccccc1 [Example 324, 2-(2-((1S,5R)-6-phenyl-2,6-diazabicyclo[3.2.1]octan-2-yl)ethyl)-3,4-dihydroisoquinolin-1(2H)-one] |
| 2.12 | O[C@H](COC1CCCCC1)CN1CCC[C@H](Oc2ccc(F)cc2)C1 [Example 268, (S)-1-(cyclohexyloxy)-3-((S)-3-(4-fluorophenoxy)piperidin-1-yl)propan-2-ol] |

Further lines, the compound ahead of its results:

| SMILES | IC50 [µM] |
| --- | --- |
| COc1cccc(O[C@@H]2CCN(CC(O)CO[C@H]3CCc4ccccc43)C2)c1 (stereo partly drawn) [Example 38, 1-(((S)-2,3-dihydro-1H-inden-1-yl)oxy)-3-((R)-3-(3-methoxyphenoxy)pyrrolidin-1-yl)propan-2-ol] | 3.17 |
| COc1ccccc1OC1CCN(CC2(C)Cc3ccccc3C2)CC1 [Example 146, 4-(2-methoxyphenoxy)-1-((2-methyl-2,3-dihydro-1H-inden-2-yl)methyl)piperidine] | > 1 |
| c1ccc2c(c1)CCC1(CCN(CCO[C@@H]3CCc4ccccc43)CC1)O2 [Example 431, (R)-1′-(2-((2,3-dihydro-1H-inden-1-yl)oxy)ethyl)spiro[chromane-2,4′-piperidine]] | 0.71 |
| COc1ccccc1O[C@H]1CCN(CCN2CCc3ccccc3C2=O)[C@H]1C [Example 19, 2-(2-((2S,3S)-3-(2-methoxyphenoxy)-2-methylpyrrolidin-1-yl)ethyl)-3,4-dihydroisoquinolin-1(2H)-one] | 0.56 |
| O=C1c2ccccc2CCN1CCN1CC[C@H](Oc2cccnc2)C1 [Example 24, (S)-2-(2-(3-(pyridin-3-yloxy)pyrrolidin-1-yl)ethyl)-3,4-dihydroisoquinolin-1(2H)-one] | > 16.7 |
| O=C1c2ccccc2CCN1CCN1CC[C@@H](Oc2cccnc2)C1 [Example 23, (R)-2-(2-(3-(pyridin-3-yloxy)pyrrolidin-1-yl)ethyl)-3,4-dihydroisoquinolin-1(2H)-one] | > 16.7 |
| COc1ccccc1O[C@@H]1CCN(CCN2CCc3ccccc3C2=O)C1 [Example 13, (R)-2-(2-(3-(2-methoxyphenoxy)pyrrolidin-1-yl)ethyl)-3,4-dihydroisoquinolin-1(2H)-one] | 1.93 |
| O[C@@H](COC1CCCCC1)CN1[C@@H]2CC[C@H]1CN(c1nccs1)C2 [Example 291, (R)-1-(cyclohexyloxy)-3-((1R,5S)-3-(thiazol-2-yl)-3,8-diazabicyclo[3.2.1]octan-8-yl)propan-2-ol] | > 10 |
| COc1ccccc1OC1CCN(CC2CCc3cc(C#N)ccc32)CC1 (stereo not shown) [Example 99, 1-((4-(2-methoxyphenoxy)piperidin-1-yl)methyl)-2,3-dihydro-1H-indene-5-carbonitrile] | 0.45 |
| COc1ccccc1O[C@H]1CCN(CCN2CCc3ccccc3C2=O)[C@@H]1C [Example 18, 2-(2-((2R,3S)-3-(2-methoxyphenoxy)-2-methylpyrrolidin-1-yl)ethyl)-3,4-dihydroisoquinolin-1(2H)-one] | 0.02 |
| COc1ccccc1O[C@@H]1CCN(CC2Cc3cccnc3C2)[C@@H](C)C1 (stereo partly drawn) [Example 149, 6-(((2S,4R)-4-(2-methoxyphenoxy)-2-methylpiperidin-1-yl)methyl)-6,7-dihydro-5H-cyclopenta[b]pyridine] | 0.3 |
| COc1ccccc1OC1CCN(CC2(C)Cc3cccnc3C2)CC1 (stereo not shown) [Example 151, 6-((4-(2-methoxyphenoxy)piperidin-1-yl)methyl)-6-methyl-6,7-dihydro-5H-cyclopenta[b]pyridine] | > 10 |
| CC1Cc2ccccc2C(=O)N1CCN1CCC(Oc2cccc(Cl)c2)CC1 (stereo not shown) [Example 198, 2-(2-(4-(3-chlorophenoxy)piperidin-1-yl)ethyl)-3-methyl-3,4-dihydroisoquinolin-1(2H)-one] | 0.41 |
| O=C1c2ccccc2CCN1CCN1CCC(Oc2ccncc2)CC1 [Example 199, 2-(2-(4-(pyridin-4-yloxy)piperidin-1-yl)ethyl)-3,4-dihydroisoquinolin-1(2H)-one] | > 8.7 |
| COc1ccc2c(c1)[C@@H](CN1C[C@@H]3CC[C@H]1CN3c1ccccc1)CC2 (single isomer, unassigned) [Compound 311] | 0.01 |
| O[C@@H](COC1CCCCC1)CN1C[C@H]2CC[C@@H](C1)N2c1ccccc1 [Example 301, (R)-1-(cyclohexyloxy)-3-((1R,5S)-8-phenyl-3,8-diazabicyclo[3.2.1]octan-3-yl)propan-2-ol] | > 10 |
| OC(CO[C@@H]1CCc2ccccc21)CN1CC[C@H](Oc2cccc(F)c2)C1 (stereo partly drawn) [Example 37, 1-(((R)-2,3-dihydro-1H-inden-1-yl)oxy)-3-((S)-3-(3-fluorophenoxy)pyrrolidin-1-yl)propan-2-ol] | 9.01 |
